What was measured:
NCI-H1792 cells = assay: Anti proliferative activity in NCI-H1792 cells by XTT assay; format: cell-based; details: H1792 cell line; for IC50: 72 hours incubation; for viability at 30 µM / % Viability (at 30 μM): 72 hours
Description: Example 78: Determination of Anti Proliferative Activity in NCI-H1792 Cells by XTT Assay
NCI-H1792 cells (ATCC CRL-5895) were plated at 2000 cells/well in 96 well flat clear bottom plates (Corning, Cat. No 3596) using complete RPMI media. After 24 hours, compounds of present invention were added to cells from 20 mM stocks made in DMSO (Sigma Cat no. D2650). Each concentration of compound was tested in triplicate with DMSO concentration not exceeding a final percentage of 0.3 in the cells. After 72 hours of incubation in CO2 incubator, XTT (Invitrogen, Cat. no X6493) was added to the wells. XTT was dissolved in serum free media at 1 mg/ml and absorbance readings were taken in spectrophotometer at 465 nm. The data was analysed using graph pad prism software. Positive control (100% survival)=Cells in complete media with 0.3% DMSO; Negative control/blank (0% survival)=Media alone containing 0.3% DMSO.
(§1) The compounds of the present invention were screened in the above mentioned assay and the results are tabulated below.

NCI-H2122 cells = assay: Anti proliferative activity in NCI-H2122 cells by XTT assay; format: cell-based; details: Homo sapiens, NCI-H2122, 192 h, H2122 cell line; for IC50: 8 days (192 hour) incubation; for viability at 30 µM: 8 days
Description: Example 79: Determination of Anti Proliferative Activity in NCI-H2122 Cells by XTT Assay
NCI-H2122 cells (ATCC CRL-5985) were plated at 1000 cells/well in 96 well flat clear bottom plates (Corning, Cat. No 3596) using complete RPMI-1640 media. After 24 hours, compounds of present invention were added to cells from 10 mM stocks made in DMSO (Sigma Cat no. D2650). Each concentration of compound was tested in triplicate with DMSO concentration not exceeding a final percentage of 0.3 in the cells. Complete RPMI-1640 media changed at Day 3 (72 hour) and Day 6 (144 hour) along with compounds of current invention. After 8 days (192 hour) of incubation assay terminated using 50 μl of XTT reagent (Invitrogen, Cat. no X6493). XTT reagent was made by dissolving 1 mg/mi XTT in serum free media with addition of 25 μM Phenazine methosulfate (sigma Cat. no P9625). Absorbance readings were taken in spectrophotometer at 465 nm. The data was analysed using graph pad prism software. Positive control (100% survival)=Cells in complete media with 0.3% DMSO; Negative control/blank (0% survival)=Media alone containing 0.3% DMSO.
as §1

| Structure (SMILES) | IC50 (NCI-H1792 cells; Homo sapiens, NCI-H1792, 72 h) | viability at 30 µM (NCI-H1792 cells; Homo sapiens, NCI-H1792, 72 h) | IC50 (NCI-H2122 cells) | other results |
| --- | --- | --- | --- | --- |
| CC(C#Cc1ccc(Cl)c(Cl)c1)NC(=O)N1CCN(C(=O)/C=C/CN(C)C)CC1 (racemic) [Example 47, (E)-N-(4-(3,4-dichlorophenyl)but-3-yn-2-yl)-4-(4-(dimethylamino)but-2-enoyl) piperazine-1-carboxamide] | < 10 µM | 26% |  |  |
| C=CC(=O)Nc1ccc(C(=O)NC(C)C#Cc2ccc(Cl)c(Cl)c2)cc1 (racemic) [Example 76, 4-acrylamido-N-(4-(3,4-dichlorophenyl)but-3-yn-2-yl)benzamide] | < 10 µM | 26% |  |  |
| CC(C#Cc1ccc(Cl)c(Cl)c1)NC(=O)N1CCN(C(=O)C(C)Cl)CC1 (stereo not shown) [Example 16] | 10 to 25 µM | 3% |  |  |
| C=C(C)C(=O)N1CCN(C(=O)NC(C)C#Cc2ccc(Cl)c(Cl)c2)CC1 (racemic) [Example 43, N-(4-(3,4-dichlorophenyl)but-3-yn-2-yl)-4-methacryloylpiperazine-1-carboxamide] |  |  | > 25 µM | viability at 30 µM (NCI-H2122 cells): 78% |
| C=CC(=O)NC1CC2CC1CN2C(=O)NC(C)C#Cc1ccc(Cl)c(Cl)c1 (stereo not shown) [Example 55] | > 25 µM | 100% |  |  |
| C=CC(=O)N1CCN(C(=O)NC2(C#Cc3ccc(Cl)c(C4(C)CC4)c3)CC2)CC1 [Example 26] |  |  | 10 to 25 µM |  |
| CC(C#Cc1ccc(Cl)c(Cl)c1)NC(=O)N1CCN(C(=O)/C=C/c2ccccc2)CC1 (stereo not shown) [Example 13] | > 25 µM |  |  |  |
| C=CC(=O)N1CCN(C(=O)NC(C)C#Cc2ccc(Cl)c(NC(C)=O)c2)CC1 (racemic) [Example 40, N-(4-(3-acetamido-4-chlorophenyl)but-3-yn-2-yl)-4-acryloylpiperazine-1-carboxamide] |  |  | 10 to 25 µM |  |
| CC(C#Cc1ccc(Cl)c(Cl)c1)NC(=O)N1CCN(CC2CO2)CC1 (stereo not shown) [Example 21] |  |  | 10 to 25 µM | viability at 30 µM (NCI-H2122 cells): 31% |
| CC(C#Cc1ccc(Cl)c(Cl)c1)NC(=O)N1CCN(C(=O)C2CC(Br)=NO2)CC1 (racemic) [Example 77, 4-(3-bromo-4,5-dihydroisoxazole-5-carbonyl)-N-(4-(3,4-dichlorophenyl)but-3-yn-2-yl)piperazine-1-carboxamide(±)] |  |  | 10 to 25 µM |  |
| C=CC(=O)N1CC(C(=O)N2CCN(C(=O)NC3(C#Cc4ccc(Cl)c(Cl)c4)CC3)CC2)C1 [Example 68, 4-(1-acryloylazetidine-3-carbonyl)-N-(1-((3,4-dichlorophenyl)ethynyl)cyclopropyl) piperazine-1-carboxamide] |  |  | > 25 µM |  |
| C=CC(=O)N1CCN(C(=O)NC(C#Cc2ccc(Cl)c(Cl)c2)CC)CC1 (racemic) [Example 2, 4-acryloyl-N-(1-(3,4-dichlorophenyl)pent-1-yn-3-yl)piperazine-1-carboxamide] | < 10 µM | 22% |  |  |
| C=CC(=O)N1CCN(C(=S)NC(C)C#Cc2ccc(Cl)c(Cl)c2)CC1 (racemic) [Example 69, 4-Acryloyl-N-(4-(3,4-dichlorophenyl)but-3-yn-2-yl) piperazine-1-carbothioamide] | 10 to 25 µM | 18% |  |  |
| C=CC(=O)N1CCN(C(=O)NC(C)C#Cc2ccc(Cl)c(N(CC)CC)c2)CC1 (stereo not shown) [Example 32] |  |  | 10 to 25 µM | viability at 30 µM (NCI-H2122 cells): 15% |
| CC(C)=CC(=O)N1CCN(C(=O)NC(C)C#Cc2ccc(Cl)c(Cl)c2)CC1 (stereo not shown) [Example 15] | > 25 µM | 90% |  |  |
| C=CS(=O)(=O)N[C@H]1CC[C@H](C(=O)NC(C)C#Cc2ccc(Cl)c(Cl)c2)CC1 (mixture of isomers) [Example 75, (1r,4r)-N-(4-(3,4-dichlorophenyl)but-3-yn-2-yl)-4-(vinylsulfonamido) cyclohexane-1-carboxamide] | < 10 µM | 10% |  |  |
| C=CC(=O)N1CCN(C(=O)NC(C)C#Cc2ccc(Cl)c(C3(C)CC3)c2)CC1 (stereo not shown) [Example 28] |  |  | 10 to 25 µM |  |
| C=CC(=O)ON=C1CCN(C(=O)NC(C)C#Cc2ccc(Cl)c(Cl)c2)CC1 (stereo not shown) [Example 53] |  |  | 10 to 25 µM | viability at 30 µM (NCI-H2122 cells): 99% |
| CC(C#Cc1ccc(Cl)c(Cl)c1)NC(=O)N1CCN(C(=O)/C=C/C(F)(F)F)CC1 (stereo not shown) [Example 42a, (E)-N-(4-(3,4-dichlorophenyl)but-3-yn-2-yl)-4-(4,4,4-trifluorobut-2-enoyl) piperazine-1-carboxamide] |  |  | < 10 µM |  |
| C=CC(=O)N1CCN(C(=O)NC(C)C#Cc2ccc(F)cc2)CC1 (stereo not shown) [Example 64] |  |  | > 25 µM | viability at 30 µM (NCI-H2122 cells): 56% |
| C=CC(=O)N1CCN(C(=O)NC(C#Cc2ccc(Cl)c(Cl)c2)C(C)C)CC1 (stereo not shown) [Example 4] | 10 to 25 µM | 15% |  |  |
| C=CC(=O)N1CC(N2CCN(C(=O)NC3(C#Cc4ccc(Cl)c(C5(C)CC5)c4)CC3)CC2)C1 [Example 27] |  |  | < 10 µM |  |

| Structure (SMILES) | IC50 (NCI-H1792 cells; Homo sapiens, NCI-H1792, 72 h) | viability at 30 µM (NCI-H1792 cells; Homo sapiens, NCI-H1792, 72 h) | IC50 (NCI-H2122 cells) | other results |
| --- | --- | --- | --- | --- |
| C=CC(=O)N1CCN(C(=O)NC(C)C#Cc2ccc(Cl)c(Cl)c2)CC1 (single isomer, unassigned) [Example 1b, 4-acryloyl-N-(4-(3,4-dichlorophenyl)but-3-yn-2-yl) piperazine-1-carboxamide] |  |  |  | IC50 (NCI-H1792 cells): 10 to 25 µM; % Viability (at 30 μM) (NCI-H1792 cells): 37% |
| C=CC(=O)N1CCN(C(=O)NC(C)C#Cc2ccc(C)c(Cl)c2)CC1 (stereo not shown) [Example 7] | 10 to 25 µM | 33% |  |  |
| C=CC(=O)N1CCC(C(=O)NC(C)C#Cc2ccc(Cl)c(Cl)c2)CC1 (stereo not shown) [Example 70] | < 10 µM | 33% |  |  |
| C=CC(=O)NC1(C(=O)NC(C)C#Cc2ccc(Cl)c(Cl)c2)CCCC1 (stereo not shown) [Example 74] |  |  | > 25 µM | viability at 30 µM (NCI-H2122 cells): 60% |
| C=CC(=O)N1CCN(C(=O)NC(C)C#Cc2ccc(OCc3ccccc3)c(Cl)c2)CC1 (stereo not shown) [Example 18] |  |  | < 10 µM | viability at 30 µM (NCI-H2122 cells): 1% |
| C=CC(=O)N1CCN(C(=O)NC(C)C#Cc2ccc(C(F)(F)F)c(Cl)c2)CC1 (stereo not shown) [Example 6] | 10 to 25 µM | 19% |  |  |
| C=CS(=O)(=O)NC1CCN(C(=O)NC(C)C#Cc2ccc(Cl)c(Cl)c2)CC1 (racemic) [Example 49, N-(4-(3,4-dichlorophenyl)but-3-yn-2-yl)-4-(vinylsulfonamido) piperidine-1-carboxamide] | 10 to 25 µM | 35% |  |  |
| C=CC(=O)N1CCN(C(=O)NC(C)C#Cc2ccc3ccccc3c2)CC1 (stereo not shown) [Example 9] | > 25 µM | 47% |  |  |
| C=CC(=O)N[C@H]1CC[C@H](C(=O)NC(C)C#Cc2ccc(Cl)c(Cl)c2)CC1 (stereo partly shown) [Example 73] | > 25 µM | 64% |  |  |
| C=CC(=O)N1CCN(C(=O)NC(C#Cc2ccc(Cl)c(Cl)c2)CC)CC1 (single isomer, unassigned) [Example 2a] |  |  |  | IC50 (NCI-H1792 cells): > 25 µM; % Viability (at 30 μM) (NCI-H1792 cells): 56% |
| CC(C#Cc1ccc(Cl)c(Cl)c1)NC(=O)N1CCN(C(=O)/C=C/C(N)=O)CC1 (racemic) [Example 65, (E)-4-(4-amino-4-oxobut-2-enoyl)-N-(4-(3,4-dichlorophenyl)but-3-yn-2-yl) piperazine-1-carboxamide] | > 25 µM | 73% |  |  |
| C=CC(=O)N1CCN(C(=O)NC(C)C#Cc2ccc(Cl)c(Cl)c2)CC1 (racemic) [Example 1, 4-acryloyl-N-(4-(3,4-dichlorophenyl)but-3-yn-2-yl) piperazine-1-carboxamide] | < 10 µM | 40% |  |  |
| CC(C#Cc1ccc(Cl)c(Cl)c1)NC(=O)N1CCN(C(=O)CCl)CC1 (stereo not shown) [Example 19] | < 10 µM |  |  |  |
| C=CC(=O)NC1CCN(C(=O)NC(C)C#Cc2ccc(Cl)c(Cl)c2)CC1 (stereo not shown) [Example 12] | > 25 µM | 83% |  |  |
| C=CC(=O)N1CC(N2CCN(C(=O)NC(C)C#Cc3ccc(Cl)c(Cl)c3)CC2)C1 (stereo not shown) [Example 8] | < 10 µM | 35% |  |  |
| CCOC(=O)/C=C/C(=O)N1CCN(C(=O)NC(C)C#Cc2ccc(Cl)c(Cl)c2)CC1 (stereo not shown) [Example 57] | < 10 µM | 17% |  |  |
| C/C=C/C(=O)N1CCN(C(=O)NC(C)C#Cc2ccc(Cl)c(Cl)c2)CC1 (stereo not shown) [Example 14] | > 25 µM |  |  |  |
| C=CC(=O)N1CCN(C(=O)NC(C#Cc2ccc(Cl)c(Cl)c2)CC)CC1 (single isomer, unassigned) [Example 2b] |  | 57% |  | IC50 (NCI-H1792 cells): 10 to 25 µM |
| C=CC(=O)N1CCN(C(=O)NC(C)C#Cc2cccc3c2cnn3C)CC1 (stereo not shown) [Example 11] | > 25 µM | 91% |  |  |
| C=CC(=O)N1CCN(C(=O)NC(C)C#Cc2ccc3[nH]ncc3c2)CC1 (stereo not shown) [Example 10] | > 25 µM | 89% |  |  |
| C=CS(=O)(=O)NC1CC2CC1CN2C(=O)NC(C)C#Cc1ccc(Cl)c(Cl)c1 (stereo not shown) [Example 56] | 10 to 25 µM | 39% |  |  |
